Tests used:
[1] = test system: pro-inflammatory macrophages in WAT; experiment: H&E histological examination of macrophage infiltration in WAT; format: in vivo, mice; details: bvPLA2-treated HFD+PLA2 group vs HFD group
Protocol: (§1) Liver and kidney tissues were fixed in 4% paraformaldehyde overnight, dehydrated, embedded in paraffin, and sectioned to a thickness of 4 μm. The sections were deparaffinized with xylene and then hydrated again with 100%, 90%, 80%, and 70% ethanol. The hydrated sections were washed with tap water and stained with a hematoxylin solution for 5 minutes. Thereafter, the stained sections were immersed in 1% acid alcohol, and then stained again in an eosin solution for 3 minutes. Thereafter, for mounting, the stained sections were dehydrated with 70%, 80%, 90%, or 100% ethanol […].
Since obesity is characterized by the localization of crown-like structures (CLS), which are formed by pro-inflammatory macrophages surrounding dead adipocytes in AT28, H&E histological examination was performed to investigate whether bvPLA2 inhibited the macrophage infiltration in WAT.

[2] = test system: obesity-induced mice, regulatory T cell depletion; experiment: Body weight of obesity-induced mice with regulatory T cell depletion (anti-mouse CD25 PC61) or rat IgG control; format: in vivo
Protocol: Anti-mouse CD25 (clone: PC61) was produced from hybridomas obtained from the American Type Culture Collection (ATCC; Manassas, Va., USA), and the mice were intraperitoneally injected with anti-mouse CD25 or rat IgG (Sigma-Aldrich) every 3 days for 11 weeks.
In order to investigate the correlation between bvPLA2 and regulatory T cells, regulatory T cell depletion was performed by injecting anti-mouse CD25 antibody (clone PC61) into mice every 3 days. Rat IgG was used as a control.

mice of the HFD group = experiment: Comparison with mellitin: body weight changes in HFD mice; format: in vivo; details: 0.5 mg/kg intraperitoneally for 16 weeks, vs control group (PBS)
Protocol: In order to investigate a component having an excellent obesity inhibitory effect among the components of bee venom, mellitin, which is the most abundant in bee venom, was compared with bvPLA2, which is PLA2 derived from bee venom.
More specifically, the mice of the ND and HFD groups were intraperitoneally administered with PBS, mellitin, and bvPLA2 at 0.5 mg/kg each for 16 weeks, and then the body weight changes were compared every day.

[3] = test system: HFD-induced metabolic dysfunction; experiment: Serum/plasma levels of liver, kidney and metabolic markers by group; format: in vivo, mice
Protocol: The effects of bvPLA2 on liver and kidney functions were investigated.
More specifically, serum levels of alanine aminotransferase (ALT), aminotransferase (AST), blood urea nitrogen (BUN), and […] (Crea) were measured for each group.
In order to investigate the effect of bvPLA2 on metabolic syndrome, the triglyceride (TG), glucose (GLU), high-density lipoprotein cholesterol (HDL-C), and low-density lipoprotein cholesterol (LDL-C) levels were analyzed for each group.
In addition, plasma insulin and leptin levels were analyzed for each group.

[4] = test system: white adipose tissue (WAT); experiment: Quantitative real-time PCR of M1/M2 markers and adipogenic factors in white adipose tissue; format: in vivo, mice
Protocol: Total RNA was isolated from white adipose tissue (WAT) samples by using an easy-BLUE RNA extraction kit (iNtRON Biotechnology, Korea), and cDNA was synthesized using Cyclescript reverse transcriptase (Bioneer, Korea). The synthesized cDNA was subjected to quantitative real-time PCR (95° C. for 15 sec, 55° C. for 10 sec, and 72° C. for 10 sec) with SensiFAST SYBR no-Rox kit (Bioline, Korea), and each reaction was performed in triplicate. The primer sequences for the experiment were as follows:
The changes in macrophage phenotypes were analyzed by quantitative real-time PCR analysis.
More specifically, the expressions of TNF-α, IL-1β, and IL-12a were measured to investigate the effect of bvPLA2 on M1-related markers.
In addition, the expressions of the M2-related markers IL-4, CD206, and Ym1 were measured.
In addition, the expressions of PPARγ, C/EBPα, and UCP-1, which are markers related with lipid accumulation and adipogenesis, were measured.

[5] = test system: liver and kidney tissues from the mice; experiment: H&E staining of liver and kidney: HFD-induced hepatic steatosis and kidney damage; format: in vivo
Protocol: as §1
In order to investigate whether PLA2 alleviated HFD-induced hepatic steatosis and kidney inflammation, liver and kidney tissues from the mice were H&E stained.
Next, the glomerular diameter indicating an early indicator of diabetic nephropathy caused by kidney damage was investigated.

[6] = test system: CD206-deficient (CD206-/-) mice lacking the mannose receptor; experiment: Body weight and adipose tissue weight of CD206-deficient mice on HFD; format: in vivo; details: HFD+PLA2 vs HFD group
Protocol: (§2) Male C57BL/6 mice (5 weeks old; weight 18-20 g) and CD206−/− mice (B6.129P2-MRC1tm1Mnz/J) were purchased from Jackson Laboratory (Bar Harbor, Me.). After acclimation for one week, the mice were fed a normal diet (ND, 10 kcal %) or a high-fat diet (HFD, 60 kcal %) for 15 weeks. Thereafter, the mice were intraperitoneally injected with PBS or bvPLA2 (0.5 mg/kg) starting on week 5 and continuing for 11 weeks.
In order to investigate the immunoregulatory effect of bvPLA2, CD206-deficient (CD206−/−) mice lacking the mannose receptor were used.
More specifically, the body weight and adipose tissue weight of CD206−/− mice were measured by way of the same method as the above experimental schedule (FIG. 1A).

[7] = test system: mice with HFD-induced obesity; experiment: Adipose tissue weight and body weight of mice with HFD-induced obesity; format: in vivo, C57BL/6 mice
Protocol: as §2
The obesity amelioration effect of bvPLA2 was evaluated through changes in adipose tissue weight and body weight of mice with HFD-induced obesity.
More specifically, the […] mice were fed ND or HFD for 15 weeks. After 4 weeks of ND or HFD feeding, the mice were injected with PLA2 or PBS, starting on week 5 (FIG. 1A). Thereafter, the adipose tissue and body weight were measured according to the injection or non-injection of bvPLA2.

[8] = bvPLA2-treated HFD group vs HFD group
[9] = serum, HFD+PLA2 group vs HFD group
[10] = M1-related marker, HFD+PLA2 group vs HFD group
[11] = M2-related marker, HFD-PLA2 group vs HFD group
[12] = lipid accumulation/adipogenesis marker, HFD+PLA2 group vs HFD group

phospholipase A2 [bvPLA2]
CLS formation in AT [1]: reduced
macrophage infiltration in AT [1]: reduced
body weight ([2]; IgG+PLA2 obesity-induced group vs IgG-only obesity-induced group): significantly reduced
body weight ([2]; PC61+PLA2 group vs PC61-treated group): markedly reduced
body weight change (mice of the HFD group): decrease in body weight
plasma insulin level ([3]; HFD+PLA2 group vs HFD group): significantly reduced
plasma leptin level ([3]; HFD+PLA2 group vs HFD group): significantly reduced
serum ALT level [3, 8]: reduced
serum AST level [3, 8]: reduced
serum Crea level [3, 8]: reduced
GLU level [3, 9]: significantly reduced
HDL-C level [3, 9]: significantly reduced
LDL-C level [3, 9]: significantly reduced
TG level [3, 9]: significantly reduced
UCP-1 expression ([4]; HFD+PLA2 group vs HFD group): significantly increased
IL-1β expression [4, 10]: inhibited to levels similar to those in ND
IL-12a expression [4, 10]: inhibited to levels similar to those in ND
TNF-α expression [4, 10]: inhibited to levels similar to those in ND
CD206 expression [4, 11]: significantly increased
IL-4 expression [4, 11]: significantly increased
C/EBPα expression [4, 12]: inhibited
PPARγ expression [4, 12]: inhibited
kidney hypertrophy (increased glomerular diameter) ([5]; HFD+PLA2 group): no kidney hypertrophy
kidney hypertrophy (increased glomerular diameter) ([5]; ND+PLA2 group): no kidney hypertrophy
size and weight of the liver (lipid droplet accumulation and hepatomegaly) ([5]; ND+PLA2 group): no influence was observed
size and weight of the liver (lipid droplet accumulation and hepatomegaly) [5, 8]: attenuated
adipose tissue weight [6]: no significant changes
body weight [6]: no significant changes
epididymal WAT weight ([7]; HFD+PLA2 group vs HFD group): greatly reduced
inguinal WAT weight ([7]; HFD+PLA2 group vs HFD group): greatly reduced
body weight ([7]; HFD+PLA2 group vs HFD group without PLA2, 0.5 mg/kg intraperitoneally from week 5): significant reduction in body weight
food uptake ([7]; all groups (ND, HFD, with or without PLA2)): no food uptake change was observed

mellitin [reference compound]
body weight change (mice of the HFD group): increase in body weight
